From paper PMC6600370 (International Journal of Molecular Sciences, 2019)
Blank lines part the entries; values can stand above or below the compound they belong to.

Assays:
[1] = target: T1, Xanthine oxidase (from bovine milk) (Bos taurus, UniProt P80457); assay: XO assay with 6-MP substrate (6-thiouric acid formation, HPLC); type: biochemical; details: for Effect on 6-TU formation at 20 μM: 20 μM test compound; for Effect on 6-TU formation at 0.25 μM: 0.25 μM test compound; for Effect on 6-TU formation at 3 μM: 3 μM test compound; for IC50 (6-MP)/IC50 (Xanthine): ratio of IC50 values, both substrates 5 μM
T1 construct: Xanthine oxidase (from bovine milk); purchased Sigma-Aldrich; host or cells: bovine milk (natural source)
Procedure: The incubations were carried out in 0.05 M sodium phosphate buffer (pH 7.5; final volume of incubates: 500 μL). The reaction started with the addition of the enzyme, and was stopped with 30 μL of 6 M HClO4 20, 40, or 60 min later. Thereafter, the samples were vortexed and centrifuged at 14,000× g for 5 min at room temperature. A 300-μL aliquot of the supernatant was carefully removed, after which 36 μL of 1 M KOH was added to these aliquots. Samples were cooled to 4 °C to enhance the precipitation of the formed KClO4, and centrifuged at 14,000× g for 5 min at 4 °C. The supernatants were carefully removed and the substrate together with metabolites were analyzed by HPLC (see details in Section 4.5). 6-MP is oxidized to 6-TX followed by 6-TU in the two-step reaction.
Quantitation of 6-MP, 6-TX, and 6-TU was performed by the previously described method with minor modifications.

XO = details: cited from earlier work
[2] = target: T1, Xanthine oxidase (from bovine milk); assay: XO assay with xanthine substrate (uric acid formation, HPLC); type: biochemical; details: for Effect on urate formation at 10 μM: 10 μM flavonoid, 15 min preincubation, 8 min; for Effect on uric acid formation at 20 μM: 20 μM test compound (four-fold vs. substrate)
Procedure: Xanthine (5 μM) was incubated with 0.0012 U/mL XO in the absence or presence of inhibitors (0–20 μM). Incubations were started with the addition of the enzyme (final volume of incubates: 500 μL), and stopped after 4, 8, and 12 min with 30 μL of 6 M HClO4. Thereafter, the samples were vortexed, after which 97 μL of 1 M KOH was added, then samples were cooled to 4 °C and centrifuged. Other experimental conditions were the same as described in Section 4.2. Xanthine and uric acid were quantified by HPLC (see details in Section 4.5).
(§1) Quantification of xanthine, hypoxanthine, and uric acid was performed by the previously described method with minor modifications.

[3] = cited from earlier work
[4] = cited from earlier work; remark: listed apart in the source
[5] = cited from earlier work; for Therapeutic peak plasma concentrations: single 200 mg oral dose of APU
[6] = cited from earlier work; remark: listed apart in the source
[7] = target: T1, Xanthine oxidase (from bovine milk); assay: XO assay with hypoxanthine substrate (xanthine + uric acid formation, HPLC); type: biochemical
Procedure: The experiments were started with the addition of the enzyme and stopped after 4 min with 30 μL of 6 M HClO4. Other experimental conditions were the same as described in Section 4.3. XO-catalyzed oxidation of hypoxanthine results in the formation of xanthine and uric acid in two consecutive steps.
as §1

[8] = 5 μM 6-MP, 40 min incubation, 6-TU formation, read-out: 6-MP Oxidation IC50
[9] = 5 μM xanthine, 8 min incubation, uric acid formation, read-out: Xanthine Oxidation IC50

T1 sequence (P80457 whole entry): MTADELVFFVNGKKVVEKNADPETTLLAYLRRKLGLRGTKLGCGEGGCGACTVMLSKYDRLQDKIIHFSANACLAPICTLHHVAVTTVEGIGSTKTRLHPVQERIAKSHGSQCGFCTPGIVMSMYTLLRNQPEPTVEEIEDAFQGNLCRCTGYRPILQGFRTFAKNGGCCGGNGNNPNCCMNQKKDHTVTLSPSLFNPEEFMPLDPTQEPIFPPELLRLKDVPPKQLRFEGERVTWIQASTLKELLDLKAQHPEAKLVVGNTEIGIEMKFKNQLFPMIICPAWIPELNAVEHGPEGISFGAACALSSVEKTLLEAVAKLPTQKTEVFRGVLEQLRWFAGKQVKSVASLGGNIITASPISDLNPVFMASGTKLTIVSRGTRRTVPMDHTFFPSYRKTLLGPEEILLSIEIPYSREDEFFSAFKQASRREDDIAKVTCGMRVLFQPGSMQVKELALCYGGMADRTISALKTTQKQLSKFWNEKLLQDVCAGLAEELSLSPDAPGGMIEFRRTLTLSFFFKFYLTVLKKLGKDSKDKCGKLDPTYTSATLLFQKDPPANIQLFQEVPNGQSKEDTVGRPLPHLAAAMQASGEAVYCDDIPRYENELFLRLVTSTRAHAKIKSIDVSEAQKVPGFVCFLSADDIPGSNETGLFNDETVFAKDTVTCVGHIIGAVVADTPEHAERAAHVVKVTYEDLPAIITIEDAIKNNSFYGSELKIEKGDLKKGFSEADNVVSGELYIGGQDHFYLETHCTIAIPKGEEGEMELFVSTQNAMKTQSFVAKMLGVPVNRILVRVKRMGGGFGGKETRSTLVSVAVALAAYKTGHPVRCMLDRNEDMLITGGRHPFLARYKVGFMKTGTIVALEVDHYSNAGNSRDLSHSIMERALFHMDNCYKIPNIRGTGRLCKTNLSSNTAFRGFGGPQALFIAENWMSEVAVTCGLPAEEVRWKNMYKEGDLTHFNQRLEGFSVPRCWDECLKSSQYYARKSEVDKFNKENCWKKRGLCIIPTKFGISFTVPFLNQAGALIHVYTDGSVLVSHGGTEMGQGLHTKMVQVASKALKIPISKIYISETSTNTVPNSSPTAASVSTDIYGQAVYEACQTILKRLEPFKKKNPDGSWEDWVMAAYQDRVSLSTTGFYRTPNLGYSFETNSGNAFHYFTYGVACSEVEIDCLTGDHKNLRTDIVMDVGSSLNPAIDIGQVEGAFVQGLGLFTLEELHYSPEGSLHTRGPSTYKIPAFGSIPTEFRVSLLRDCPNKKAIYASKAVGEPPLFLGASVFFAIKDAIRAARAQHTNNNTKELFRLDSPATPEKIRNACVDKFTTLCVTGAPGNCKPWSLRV

SMILES: O=C(O)[C@H]1O[C@@H](Oc2cc(-c3oc4cc(O)cc(O)c4c(=O)c3O)ccc2O)[C@H](O)[C@@H](O)[C@@H]1O [Q-3′-glucuronide]
Inhibition of XO-catalyzed xanthine oxidation (XO): similarly strong inhibitors of xanthine oxidation as Q

SMILES: O=C(O)[C@H]1O[C@@H](Oc2cc(O)c3c(=O)c(O)c(-c4ccc(O)c(O)c4)oc3c2)[C@H](O)[C@@H](O)[C@@H]1O [Q-7-glucuronide]
Inhibition of XO-catalyzed xanthine oxidation (XO): only weak inhibitors

SMILES: O=c1c(O)c(-c2ccc(O)c(O)c2)oc2cc(O)cc(O)c12 [Q, Quercetin]
Effect on 6-TU formation at 0.25 μM ([1]; 5 μM 6-MP): only weak inhibitory action
Effect on 6-TU formation at 3 μM ([1]; 5 μM 6-MP): almost completely inhibited
Effect on urate formation at 10 μM ([2]; 5 μM xanthine): almost completely abolished
Serum urate levels in hyperuricemic mice ([3]; 100 mg/kg, hyperuricemic mice): decreased the serum urate levels
Serum urate levels in normal or hyperuricemic mice ([3]; 400 mg/kg orally administered): failed to decrease the serum urate levels
Serum uric acid levels, human ([4]; 1000 or 2000 mg/day): does not influence the serum uric acid levels
Serum urate, human ([4]; four-week treatment, 500 mg/day): minimal reduction in serum urate
Peak plasma concentrations of total Q ([5]; repeated daily oral administration of 1000 mg Q): low micromolar range
Oral bioavailability [6]: low

SMILES: COc1cc(-c2oc3cc(O)cc(O)c3c(=O)c2O)ccc1O [IR, Isorhamnetin]
IC50 [1]: 600 nM
Effect on 6-TU formation at 3 μM ([1]; 5 μM 6-MP): almost completely inhibited
IC50 (6-MP)/IC50 (Xanthine) [1]: 0.86
IC50 [2]: 700 nM
Effect on urate formation at 10 μM ([2]; 5 μM xanthine): almost completely abolished

SMILES: O=c1[nH]c(=O)c2c[nH]nc2[nH]1 [Oxipurinol, oxipurinol, reference compound]
IC50 [1, 8]: 10000 nM
IC50 [2, 9]: 4500 nM
IC50 [7]: > 3000 nM
Therapeutic peak plasma concentrations [5]: 35 to 40 µM

SMILES: Oc1ncnc2[nH]ncc12 [APU, Allopurinol, reference compound]
Effect on 6-TU formation at 3 μM ([1]; 5 μM 6-MP): only a slight effect
Therapeutic peak plasma concentrations [5]: 35 to 40 µM

SMILES: O=c1c(OS(=O)(=O)O)c(-c2ccc(O)c(O)c2)oc2cc(O)cc(O)c12 [Q-3-sulfate]
Inhibition of XO-catalyzed xanthine oxidation (XO): inhibited XO only at very high concentrations

SMILES: COc1ccc(-c2oc3cc(O)cc(O)c3c(=O)c2O)cc1O [TAM, Tamarixetin]
Effect on 6-TU formation at 0.25 μM ([1]; 5 μM 6-MP): significantly decreased
Effect on 6-TU formation at 3 μM ([1]; 5 μM 6-MP): almost completely inhibited
IC50 [1, 8]: 200 nM
IC50 (6-MP)/IC50 (Xanthine) [1]: 1.00
IC50 [2, 9]: 200 nM
Effect on urate formation at 10 μM ([2]; 5 μM xanthine): almost completely abolished

SMILES: COc1cc(-c2oc3cc(O)cc(O)c3c(=O)c2OC2OC(C(=O)O)C(O)C(O)C2O)ccc1O (stereo not drawn) [I3G, Isorhamnetin-3-glucuronide]
IC50 [1, 8]: > 20000 nM
Effect on 6-TU formation at 20 μM ([1]; 5 μM 6-MP): did not inhibit
IC50 [2, 9]: > 20000 nM
Effect on uric acid formation at 20 μM ([2]; 5 μM xanthine): did not inhibit

SMILES: O=C(O)c1ccccc1 [BA, Benzoic acid]
Effect on 6-TU formation at 20 μM ([1]; 5 μM 6-MP): significant decreases

SMILES: Oc1cccc(O)c1O [PYR, Pyrogallol]
IC50 [1, 8]: 10100 nM
Effect on 6-TU formation at 20 μM ([1]; 5 μM 6-MP): significant decreases
inhibition at 20 µM ([1]; 20 μM, 5 μM 6-MP, read-out: Inhibitory effect on 6-MP oxidation at 20 μM): > 50%
IC50 (6-MP)/IC50 (Xanthine) [1]: 5.61
IC50 [2, 9]: 1800 nM
Effect on uric acid formation at 20 μM ([2]; 5 μM xanthine): inhibited of uric acid formation significantly
inhibition at 20 µM ([2]; 20 μM, 5 μM xanthine, read-out: Inhibitory effect on xanthine oxidation at 20 μM): > 50%

SMILES: O=C(O)[C@H]1O[C@@H](Oc2ccc(-c3oc4cc(O)cc(O)c4c(=O)c3O)cc2O)[C@H](O)[C@@H](O)[C@@H]1O [Q-4′-glucuronide]
Inhibition of XO-catalyzed xanthine oxidation (XO): similarly strong inhibitors of xanthine oxidation as Q

SMILES: O=c1c(O)c(-c2ccc(O)c(OS(=O)(=O)O)c2)oc2cc(O)cc(O)c12 [Q3′S, Quercetin-3′-sulfate]
Effect on 6-TU formation at 0.25 μM ([1]; 5 μM 6-MP): significantly decreased
Effect on 6-TU formation at 3 μM ([1]; 5 μM 6-MP): almost completely inhibited
IC50 [1, 8]: 500 nM
IC50 (6-MP)/IC50 (Xanthine) [1]: 1.25
IC50 [2, 9]: 400 nM
Effect on urate formation at 10 μM ([2]; 5 μM xanthine): almost completely abolished
IC50 ([7]; 5 μM hypoxanthine, 4 min incubation, xanthine + uric acid formation, read-out: Hypoxanthine oxidation IC50): 210 nM

SMILES: O=C(O)C1OC(Oc2c(-c3ccc(O)c(O)c3)oc3cc(O)cc(O)c3c2=O)C(O)C(O)C1O (stereo not drawn) [Q3G, Quercetin-3-glucuronide]
IC50 [1, 8]: > 20000 nM
Effect on 6-TU formation at 20 μM ([1]; 5 μM 6-MP): did not inhibit
IC50 [2, 9]: > 20000 nM
Effect on uric acid formation at 20 μM ([2]; 5 μM xanthine): did not inhibit
Inhibition of XO-catalyzed xanthine oxidation (XO): only weak inhibitors

SMILES: O=C(O)CNC(=O)c1ccccc1 [HIPA, Hippuric acid]
Effect on 6-TU formation at 20 μM ([1]; 5 μM 6-MP): significant decreases

Further lines, with some results ahead:

Effect on 6-TU formation at 20 μM ([1]; 5 μM 6-MP): significant decreases
SMILES: O=C(O)Cc1ccc(CO)cc1 [4HMPAA, 4-(Hydroxymethyl)phenylacetic acid]

Effect on 6-TU formation at 20 μM ([1]; 5 μM 6-MP): significant decreases
SMILES: O=C(O)CCc1cccc(O)c1 [33HPPA, 3-(3-Hydroxyphenyl)propionic acid]

Effect on 6-TU formation at 20 μM ([1]; 5 μM 6-MP): significant decreases
SMILES: COc1ccc(C(=O)O)c(O)c1 [2H4MBA, 4-Methoxysalicylic acid]
Effect on uric acid formation at 20 μM ([2]; 5 μM xanthine): inhibited of uric acid formation significantly

Effect on 6-TU formation at 20 μM ([1]; 5 μM 6-MP): significant decreases
SMILES: O=C(O)CCc1ccccc1 [3PPA, 3-Phenylpropionic acid]

Effect on 6-TU formation at 20 μM ([1]; 5 μM 6-MP): significant decreases
SMILES: O=C(O)c1ccc(O)cc1 [4HBA, 4-Hydroxybenzoic acid]

Effect on 6-TU formation at 20 μM ([1]; 5 μM 6-MP): significant decreases
SMILES: O=C(O)CCc1ccc(O)cc1O [324DHPPA, 3-(2,4-Dihydroxyphenyl)propionic acid]

Effect on 6-TU formation at 20 μM ([1]; 5 μM 6-MP): significant decreases
SMILES: O=C(O)/C=C/c1cccc(O)c1 [3CA, 3-Coumaric acid]

Effect on 6-TU formation at 20 μM ([1]; 5 μM 6-MP): significant decreases
SMILES: O=C(O)c1ccc(O)cc1O [24DHBA, 2,4-Dihydroxybenzoic acid]

Effect on 6-TU formation at 20 μM ([1]; 5 μM 6-MP): significant decreases
SMILES: O=C(O)Cc1ccc(O)cc1 [4HPAA, 4-hydroxyphenylacetic acid]

Effect on 6-TU formation at 20 μM ([1]; 5 μM 6-MP): significant decreases
SMILES: CC(=O)c1ccc(O)cc1O [24DHAP, 2,4-Dihydroxyacetophenon]

Effect on 6-TU formation at 20 μM ([1]; 5 μM 6-MP): significant decreases
SMILES: O=C(O)Cc1ccccc1O [2HPAA, 2-Hydroxyphenylacetic acid]

Effect on 6-TU formation at 20 μM ([1]; 5 μM 6-MP): significant decreases
SMILES: O=C(O)CCc1ccc(O)cc1 [34HPPA, 3-(4-Hydroxyphenyl)propionic acid]

Effect on 6-TU formation at 20 μM ([1]; 5 μM 6-MP): significant decreases
SMILES: COc1ccc(CC(=O)O)cc1O [3H4MPAA, 3-Hydroxy-4-methoxyphenylacetic acid]
